Assay results: ChEMBL document CHEMBL3407402, “Nintedanib: from discovery to the clinic” (J Med Chem, 2015)
Blank lines part the entries; values can stand above or below the molecule they belong to.

Experiments:
[1] = Antitumor activity against human H460 cells in xenograft model assessed as tumor growth inhibition ratio; assay type: functional, NCI-H460
[2] = Cmax in CD1 mouse at 50 mg/kg, po; assay type: ADME, organism-based; design: dose 50 mg/kg, route oral; conditions: in vivo
[3] = Mean residence time in Cynomolgus monkey at 5 mg/kg, iv; assay type: ADME, organism-based, Macaca fascicularis; design: dose 5 mg/kg, route intravenous; conditions: in vivo
[4] = Oral bioavailability in Cynomolgus monkey at 40 mg/kg; assay type: ADME, organism-based, Macaca fascicularis; conditions: in vivo
[5] = Drug excretion in healthy male after 24 to 48 hrs; assay type: ADME, organism-based; conditions: human, in vivo, read-out: Drug excretion
[6] = AUC in Cynomolgus monkey at 5 mg/kg, iv; assay type: ADME, organism-based, Macaca fascicularis; design: dose 5 mg/kg, route intravenous; conditions: plasma
in vivo = conditions: rhesus monkey, iv, 5 mg/kg
Description: Half life in Rhesus monkey at 5 mg/kg, iv

[7] = AUC in CD1 mouse at 50 mg/kg, po; assay type: ADME, organism-based; design: dose 50 mg/kg, route oral; conditions: plasma
[8] = Volume of distribution at steady state in Rhesus monkey at 5 mg/kg, iv; assay type: ADME, organism-based, Macaca mulatta; design: dose 5 mg/kg, route intravenous; conditions: in vivo, read-out: Vdss
[9] = Clearance in Rhesus monkey at 5 mg/kg, iv; assay type: ADME, organism-based, Macaca mulatta; design: dose 5 mg/kg, route intravenous; conditions: in vivo
clinical = conditions: male, human, in vivo
Description: Terminal half life in healthy male

[10] = AUC in Wistar rat at 2 mg/kg, iv; assay type: ADME, organism-based; design: dose 2 mg/kg, route intravenous; conditions: plasma
[11] = AUC in Rhesus monkey at 5 mg/kg, iv; assay type: ADME, organism-based, Macaca mulatta; design: dose 5 mg/kg, route intravenous; conditions: plasma
[12] = Mean residence time in Rhesus monkey at 5 mg/kg, iv; assay type: ADME, organism-based, Macaca mulatta; design: dose 5 mg/kg, route intravenous; conditions: in vivo
[13] = Cmax in Rhesus monkey at 5 mg/kg, iv; assay type: ADME, organism-based, Macaca mulatta; design: dose 5 mg/kg, route intravenous; conditions: in vivo
[14] = Drug excretion in healthy male via biliary system into feces over 120 hrs; assay type: ADME, tissue-based; conditions: human, faeces, read-out: Drug excretion
[15] = AUC in Cynomolgus monkey at 40 mg/kg, po; assay type: ADME, organism-based, Macaca fascicularis; design: dose 40 mg/kg, route oral; conditions: plasma
[16] = Cmax in Wistar rat at 50 mg/kg, po; assay type: ADME, organism-based; design: dose 50 mg/kg, route oral; conditions: in vivo
[17] = Half life in CD1 mouse at 50 mg/kg, po; assay type: ADME, organism-based; design: dose 50 mg/kg, route oral; conditions: in vivo
[18] = Drug excretion in healthy male urine after 72 hrs; assay type: ADME, tissue-based; conditions: human, read-out: Drug excretion
[19] = Half life in Cynomolgus monkey at 5 mg/kg, iv; assay type: ADME, organism-based, Macaca fascicularis; design: dose 5 mg/kg, route intravenous; conditions: in vivo
[20] = Oral bioavailability in Wistar rat at 50 mg/kg; assay type: ADME, organism-based; conditions: in vivo
[21] = Clearance in Cynomolgus monkey at 5 mg/kg, iv; assay type: ADME, organism-based, Macaca fascicularis; design: dose 5 mg/kg, route intravenous; conditions: in vivo
[22] = AUC in Wistar rat at 50 mg/kg, po; assay type: ADME, organism-based; design: dose 50 mg/kg, route oral; conditions: plasma
Rattus norvegicus [23] = experiment: Half life in Wistar rat at 2 mg/kg, iv; assay type: ADME, organism-based; design: dose 2 mg/kg, route intravenous; conditions: in vivo
Rattus norvegicus [24] = experiment: Mean residence time in Wistar rat at 2 mg/kg, iv; assay type: ADME, organism-based; design: dose 2 mg/kg, route intravenous; conditions: in vivo
[25] = Oral bioavailability in Rhesus monkey at 40 mg/kg; assay type: ADME, organism-based, Macaca mulatta; conditions: in vivo
[26] = Drug excretion in healthy male urine/feces after 96 hrs; assay type: ADME, tissue-based; conditions: human, urine and faeces, read-out: Drug excretion
[27] = AUC in Rhesus monkey at 40 mg/kg, po; assay type: ADME, organism-based, Macaca mulatta; design: dose 40 mg/kg, route oral; conditions: plasma
[28] = Inhibition of VEGF-stimulated HSMEC cell proliferation; assay type: functional; conditions: Homo sapiens
[29] = Cmax in Rhesus monkey at 40 mg/kg, po; assay type: ADME, organism-based, Macaca mulatta; design: dose 40 mg/kg, route oral; conditions: in vivo
[30] = Volume of distribution at steady state in Cynomolgus monkey at 5 mg/kg, iv; assay type: ADME, organism-based, Macaca fascicularis; design: dose 5 mg/kg, route intravenous; conditions: in vivo, read-out: Vdss
[31] = Cmax in Wistar rat at 2 mg/kg, iv; assay type: ADME, organism-based; design: dose 2 mg/kg, route intravenous; conditions: in vivo
[32] = Clearance in Wistar rat at 2 mg/kg, iv; assay type: ADME, organism-based; design: dose 2 mg/kg, route intravenous; conditions: in vivo
[33] = Mean residence time in CD1 mouse at 50 mg/kg, po; assay type: ADME, organism-based; design: dose 50 mg/kg, route oral; conditions: in vivo
[34] = Cmax in cynomolgus monkey at 40 mg/kg, po; assay type: ADME, organism-based, Macaca fascicularis; design: dose 40 mg/kg, route oral; conditions: in vivo
[35] = Cmax in Cynomolgus monkey at 5 mg/kg, iv; assay type: ADME, organism-based, Macaca fascicularis; design: dose 5 mg/kg, route intravenous; conditions: in vivo

SMILES: CC(=O)O[C@@]12CO[C@@H]1C[C@H](O)[C@@]1(C)C(=O)[C@H](O)C3=C(C)[C@@H](OC(=O)[C@H](O)[C@@H](NC(=O)OC(C)(C)C)c4ccccc4)C[C@@](O)([C@@H](OC(=O)c4ccccc4)[C@H]21)C3(C)C.O.O.O [DOCETAXEL]
TGI [1]: 66%

Cmax [2]: 0.547 µg/mL
MRT [3]: 3.82 h
bioavailability [4]: 13.2%
dose excreted [5]: 56.3%
AUC [6]: 2.26 µg·h/mL
half-life (in vivo): 7.09 h
AUC [7]: 2.72 µg·h/mL
Vd [8]: 10.4 L/kg
clearance [9]: 1.81 L/h/kg
half-life (clinical): 13 h
AUC [10]: 0.181 µg·h/mL
AUC [11]: 2.83 µg·h/mL
MRT [12]: 5.7 h
Cmax [13]: 1.09 µg/mL
dose excreted at 120 h [14]: 93.4%
AUC [15]: 2.39 µg·h/mL
Cmax [16]: 0.105 µg/mL
half-life [17]: 5.15 h
dose excreted at 72 h [18]: 0.7%
half-life [19]: 5.95 h
bioavailability [20]: 11.9%
clearance [21]: 2.25 L/h/kg
AUC [22]: 0.375 µg·h/mL
t1/2 (Rattus norvegicus [23]): 3.95 h
MRT (Rattus norvegicus [24]): 3.25 h
bioavailability [25]: 23.8%
dose excreted at 96 h [26]: 92.4%
AUC [27]: 4.44 µg·h/mL
Cmax [29]: 0.311 µg/mL
Vd [30]: 8.64 L/kg
Cmax [31]: 0.124 µg/mL
clearance [32]: 12.1 L/h/kg
MRT [33]: 5.19 h
Cmax [34]: 0.175 µg/mL
Cmax [35]: 1.3 µg/mL
SMILES: CCS(=O)(=O)O.COC(=O)c1ccc2c(c1)NC(=O)/C2=C(\Nc1ccc(N(C)C(=O)CN2CCN(C)CC2)cc1)c1ccccc1 [NINTEDANIB ESYLATE]
TGI [1]: 75%
EC50 [28]: < 0.01 µM
